Values quoted from earlier work, collected in US10188593B2, “Polysaccharide delivery particle” (Spray-Tek, Inc., priority 2016, dated 2019).

Settings: perfume oil ingredients

| Compound | Octanol/water Partition Coefficient (logP) |
| --- | --- |
| CC(C)=CCCC(C)CCO (single isomer, unassigned; (-)) [(−)-Citronellol] | 2.76 |
| C=CCOC(=O)COCCC(C)C [Allyl_amyl_glycolate] | 2.81 |
| CC(=O)OCCC(C)CCC=C(C)C (centres unmarked) [Citronellyl_acetate] | 3.7 |
| C=CC(C)CCCC(C)(C)O (centres unmarked) [Dihydromyrcenol] | 3.08 |
| CCOC(=O)C(C)CC (centres unmarked) [Ethyl_2-methylbutyrate] | 1.91 |
| CCOc1cc(C=O)ccc1O [Ethyl_vanillin] | 1.53 |
| CC(C)c1cccc(C(C)CC=O)c1 (centres unmarked) [Florhydral] | 3.59 |
| CCCCCCOC(C)=O [Hexyl_acetate] | 2.64 |
| CC=Cc1ccc(O)c(OC)c1 [Isoeugenol] | 1.85 |
| CCCCCCCCCCCC#N [Lauronitrile] | 4.84 |
| C=CC(C)(O)CCC=C(C)C (centres unmarked) [Linalool] | 2.44 |
| CCC=C(C)C(O)CCCCC (centres unmarked) [Undecavertol] | 3.06 |
| CC(=O)/C=C/C1=C(C)CCCC1(C)C [beta-Ionone] | 4.02 |
| C=C(C)[C@H]1CC=C(C)CC1 [d-Limonene] | 4.38 |
